Calls of active or inactive are those of the source. The rule behind the calls is not given here.
Experiments:
Escherichia coli = assay: Antibacterial activity against Escherichia coli harboring tolC deletion mutant assessed as reduction in microbial growth incubated for 16 hrs by serial dilution method; format: functional
[1] = biological target: UDP-N-acetylglucosamine 1-carboxyvinyltransferase (Escherichia coli K-12) (UniProt P0A749); assay: Inhibition of Escherichia coli K12 His-tagged MurA expressed in Escherichia coli BL21 cells at 50 uM using UNAG as substrate pre incubated for 15 mins followed by substrate addition and measured after 15 mins by microplate reader analysis relative to control; settings: time 30.0 min
[2] = biological target: UDP-N-acetylglucosamine 1-carboxyvinyltransferase (Escherichia coli K-12, UniProt P0A749); assay: Inhibition of Escherichia coli K12 His-tagged MurA expressed in Escherichia coli BL21 cells using UNAG as substrate pre incubated for 15 mins followed by substrate addition and measured after 15 mins by microplate reader analysis
Staphylococcus aureus [3] = assay: Antibacterial activity against Staphylococcus aureus Newman D2C NCTC 10833 assessed as reduction in microbial growth incubated for 16 hrs by serial dilution method; format: functional
Staphylococcus aureus [4] = assay: Antibacterial activity against methicillin sensitive Staphylococcus aureus NRS107 assessed as reduction in microbial growth by CLSI based broth microdilution method; format: functional
Staphylococcus aureus [5] = assay: Antibacterial activity against methicillin resistant Staphylococcus aureus NRS119 assessed as reduction in microbial growth by CLSI based broth microdilution method; format: functional
Staphylococcus aureus [6] = assay: Antibacterial activity against methicillin resistant Staphylococcus aureus USA300 assessed as reduction in microbial growth by CLSI based broth microdilution method; format: functional
Staphylococcus aureus [7] = assay: Antibacterial activity against vancomycin resistant Staphylococcus aureus 10 assessed as reduction in microbial growth by CLSI based broth microdilution method; format: functional
Clostridioides difficile = assay: Antibacterial activity against Clostridioides difficile ATCC BAA1870 assessed as reduction in microbial growth incubated for 48 hrs by broth microdilution method; format: functional

UDP-N-acetylglucosamine 1-carboxyvinyltransferase, sequence (P0A749 whole entry): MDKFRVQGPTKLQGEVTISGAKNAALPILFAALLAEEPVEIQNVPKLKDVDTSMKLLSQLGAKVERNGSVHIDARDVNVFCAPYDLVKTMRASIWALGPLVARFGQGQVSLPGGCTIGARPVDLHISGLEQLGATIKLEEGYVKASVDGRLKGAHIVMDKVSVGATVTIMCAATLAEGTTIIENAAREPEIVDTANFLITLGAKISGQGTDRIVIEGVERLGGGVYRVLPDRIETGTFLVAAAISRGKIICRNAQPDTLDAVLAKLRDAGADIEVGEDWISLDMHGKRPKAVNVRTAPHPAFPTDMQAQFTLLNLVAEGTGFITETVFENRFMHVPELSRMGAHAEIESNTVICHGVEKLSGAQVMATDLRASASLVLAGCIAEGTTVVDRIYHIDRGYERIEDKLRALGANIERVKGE
UDP-N-acetylglucosamine 1-carboxyvinyltransferase (Escherichia coli K-12), sequence (P0A749 whole entry): as above

| SMILES | MIC (Escherichia coli) [µM] | inhibition [1] | IC50 [2] [µM] | MIC (Staphylococcus aureus [3]) [µM] | MIC (Staphylococcus aureus [4]) [µg/mL] | MIC (Staphylococcus aureus [5]) [µg/mL] | MIC (Staphylococcus aureus [6]) [µg/mL] | MIC (Staphylococcus aureus [7]) [µg/mL] | MIC (Clostridioides difficile) [µg/mL] |
| --- | --- | --- | --- | --- | --- | --- | --- | --- | --- |
| Cc1csc(NC(=O)C2CN(c3cccc(Cl)c3)N(c3cccc(Cl)c3)C2=O)n1 (stereo not given) | 40 | 60.2% | 39.3 | > 40 |  |  |  |  |  |
| O=C(NCc1cccnc1)C1CN(c2cccc(Cl)c2)N(c2cccc(Cl)c2)C1=O (stereo not given) | > 40 | 11.8% |  | > 40 |  |  |  |  |  |
| O=C(Nc1ccc2[nH]ncc2c1)C1CN(c2cccc(Cl)c2)N(c2cccc(Cl)c2)C1=O (stereo not given) | 23 | 59.5% | 44.1 | > 40 |  |  |  |  |  |
| O=C(Nc1nc(C(F)(F)F)cs1)C1CN(c2cccc(Cl)c2)N(c2cccc(Cl)c2)C1=O (stereo not given) | > 40 | 59.2% | 38.6 | 40 |  |  |  |  |  |
| O=C1SCCC1NC(=O)C1CN(c2ccccc2)N(c2ccccc2)C1=O (stereo not given) | > 40 | inactive |  | > 40 |  |  |  |  |  |
| O=C(Nc1ccc2ncsc2c1)C1CN(c2cccc(Cl)c2)N(c2cccc(Cl)c2)C1=O (stereo not given) | > 40 | 44.7% |  | > 40 |  |  |  |  |  |
| O=C(NCc1ccco1)C1CN(c2cccc(Cl)c2)N(c2cccc(Cl)c2)C1=O (stereo not given) | > 40 | 34% |  | > 40 |  |  |  |  |  |
| O=C(Nc1ccc2[nH]cnc2c1)C1CN(c2cccc(Cl)c2)N(c2cccc(Cl)c2)C1=O (stereo not given) | 18 | 74.2% | 33.5 | > 40 |  |  |  |  |  |
| O=C(NCc1ccncc1)C1CN(c2cccc(Cl)c2)N(c2cccc(Cl)c2)C1=O (stereo not given) | > 40 | inactive |  | > 40 |  |  |  |  |  |
| Cc1cnc(NC(=O)C2CN(c3cccc(Cl)c3)N(c3cccc(Cl)c3)C2=O)s1 (stereo not given) | 40 | 59.6% | 22 | > 40 |  |  |  |  |  |
| O=C(Nc1cncc(Cl)c1)C1CN(c2cccc(Cl)c2)N(c2cccc(Cl)c2)C1=O (stereo not given) | > 40 | 18.2% |  | > 40 |  |  |  |  |  |
| O=C(NCc1ccccn1)C1CN(c2cccc(Cl)c2)N(c2cccc(Cl)c2)C1=O (stereo not given) | > 40 | inactive |  | > 40 |  |  |  |  |  |
| O=C(Nc1ccc2cn[nH]c2c1)C1CN(c2cccc(Cl)c2)N(c2cccc(Cl)c2)C1=O (stereo not given) | 20 | 65.2% | 35.4 | > 40 |  |  |  |  |  |
| CC(=O)NC[C@H]1CN(c2ccc(N3CCOCC3)c(F)c2)C(=O)O1 [LINEZOLID] |  |  |  |  | 0.5 | 32 | 1 | 0.5 | 1 |

— ChEMBL document CHEMBL5537113, “Discovery of 1,2-diaryl-3-oxopyrazolidin-4-carboxamides as a new class of MurA enzyme inhibitors and characterization of their antibacterial activity” (Eur J Med Chem, 2023)
